As usually defined, the inhibition is the drop in the measured response relative to a control, in per cent.

Each structure is given as a SMILES string.

The source of these data is patent US20020183384A1, “Methods of treating nuclear factor-kappa B mediated diseases and disorders” (priority 2001, published 2002).

The first assay deals with NF-κB mediated transcription. The assay is described as follows: NF-κB driven β-lactamase reporter assay in ECV-304 NF-κB.βlaZ cells (AURORA CCF2 fluorescence). The format is cell-based, human. To be noted: 10 μM compound; ECV-304 NF-κB.βlaZ cells stimulated with 10 ng/mL TNF-α or 100 pg/mL IL-1β, 6 hours at 37° C.; inhibition of maximum blue/green ratio. Put shortly:
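ECV-304 cells (clone 1E8) stably carrying a β-lactamase reporter driven by 5 HIV-1 NF-κB sites, plated in M-199 with 2% FBS, compound at 10 μM final. CCF2 read at 395 nm excitation, blue 460 nm/green 530 nm emission ratio; IC50 from dose-response curve.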
(In general: In a reporter assay the amount or activity of a reporter protein is the signal.)
On to `CC(C)c1cc(C(C)C)c(CC(=O)NS(=O)(=O)Oc2c(C(C)C)cc(NC(=O)[C@@H](N)CCCCN)cc2C(C)C)c(C(C)C)c1` [Example 197, [2-(2,4,6-Triisopropyl-phenyl)-acetyl]-sulfamic acid 4-((S)-2,6-diamino-hexanoylamino)-2,6-diisopropyl-phenyl ester; compound with generic inorganic neutral component], for which the “Percent Inhibition at 10 μM” value is reported as less than 10%.

Still in this assay, the particulars now being: Homo sapiens, ECV-304, 6 h, 10 μM compound; ECV-304 NF-κB.βlaZ cells stimulated with 10 ng/mL TNF-α or 100 pg/mL IL-1β, 6 hours at 37° C.; inhibition of maximum blue/green ratio; read-out: Percent Inhibition at 10 μM.
For the molecule `CC(C)c1cc(C(C)C)c(CC(=O)NS(=O)(=O)Oc2c(C(C)C)cc(N)cc2C(C)C)c(C(C)C)c1` [Example 187, [(2,4,6-Triisopropyl-phenyl)-acetyl]-sulfamic acid 4-amino-2,6-diisopropyl-phenyl ester], the inhibition at 10 µM was 57.8%. `CCOC(=O)CCCCCc1cc(C(C)C)c(OS(=O)(=O)NC(=O)Cc2c(C(C)C)cc(C(C)C)cc2C(C)C)c(C(C)C)c1` [Example 188, 6-(3,5-Diisopropyl-4-{[(2,4,6-triisopropyl-phenyl)-acetyl]sulfamoyloxy}-phenyl)-hexanoic acid ethyl ester]: the inhibition at 10 µM was found to be 50.8%. Consider `COc1cc(OC)c(OS(=O)(=O)NC(=O)Cc2c(C(C)C)cc(C(C)C)cc2C(C)C)c(OC)c1` [Example 189, [(2,4,6-Triisopropyl-phenyl)-acetyl]-sulfamic acid 2,4,6-trimethoxy-phenyl ester], for which the inhibition at 10 µM is 15.1%. For `CC(C)c1cc(C(C)C)c(CC(=O)NS(=O)(=O)Oc2c(C(C)C)cc(C(C)(C)C)cc2C(C)C)c(C(C)C)c1` [Example 190, [(2,4,6-Triisopropyl-phenyl)-acetyl]-sulfamic acid 4-tert-butyl-2,6-diisopropyl-phenyl ester], the inhibition at 10 µM is 27.6%. For the molecule `CC(=O)c1ccc(OS(=O)(=O)NC(=O)Cc2c(C(C)C)cc(C(C)C)cc2C(C)C)c(C(C)C)c1` [Example 191, [(2,4,6-Triisopropyl-phenyl)-acetyl]-sulfamic acid 4-acetyl-2-isopropyl-phenyl ester], the inhibition at 10 µM is 55.7%.

For `COc1cc(C(C)C)c(OS(=O)(=O)NC(=O)Cc2c(C(C)C)cc(C(C)C)cc2C(C)C)c(C(C)C)c1` [Example 192, [(2,4,6-Triisopropyl-phenyl)-acetyl]-sulfamic acid 2,6-diisopropyl-4-methoxy-phenyl ester], the inhibition at 10 µM stood at 63.9%. With `CC(C)c1cc(C(C)C)c(CC(=O)NS(=O)(=O)Oc2c(Cl)cccc2Cl)c(C(C)C)c1` [Example 193, [(2,4,6-Triisopropyl-phenyl)-acetyl]-sulfamic acid 2,6-dichloro-phenyl ester], the inhibition at 10 µM worked out at 38.3%. Take `CCOC(=O)CCNC(=O)Nc1cc(C(C)C)c(OS(=O)(=O)NC(=O)Cc2c(C(C)C)cc(C(C)C)cc2C(C)C)c(C(C)C)c1` [Example 194, 3-[3-(3,5-Diisopropyl-4-{[(2,4,6-triisopropyl-phenyl)-acetyl]-sulfamoyloxy}-phenyl)-ureido]-propionic acid ethyl ester]: the inhibition at 10 µM worked out at 89.8%.

`CC(C)c1cc(C(C)C)c(CC(=O)NS(=O)(=O)Oc2c(C(C)C)cc(NC(=O)C(CCCCNC(=O)OC(C)(C)C)NC(=O)OC(C)(C)C)cc2C(C)C)c(C(C)C)c1` (stereo not shown) [Example 195, [5-tert-Butoxycarbonylamino-5-(3,5-diisopropyl-4-{[(2,4,6-triisopropyl-phenyl)-acetyl]sulfamoyloxy}-phenylcarbamoyl)-pentyl]-carbamic acid tert-butyl ester]: the inhibition at 10 µM stood at 91.8%. Turning to `CC(=O)Nc1cc(C(C)C)c(OS(=O)(=O)NC(=O)Cc2c(C(C)C)cc(C(C)C)cc2C(C)C)c(C(C)C)c1` [Example 196, [(2,4,6-Triisopropyl-phenyl)-acetyl]-sulfamic acid 4-acetylamino-2,6-diisopropyl-phenyl ester], the inhibition at 10 µM stood at 73.1%. On to `CC(C)c1cc(C(C)C)c(CC(=O)NS(=O)(=O)Oc2c(C(C)C)cc(NC(=O)CNC(=O)OC(C)(C)C)cc2C(C)C)c(C(C)C)c1` [Example 198, [(3,5-Diisopropyl-4-{[(2,4,6-triisopropyl-phenyl)-acetyl]sulfamoyloxy}-phenylcarbamoyl)-methyl]-carbamic acid tert-butyl ester], for which the inhibition at 10 µM worked out at 75.8%. As for `CCCCCCCCCCCCOS(=O)(=O)NC(=O)Cc1c(C(C)C)cc(C(C)C)cc1C(C)C` [Example 199, [(2,4,6-Triisopropyl-phenyl)-acetyl]-sulfamic acid dodecyl ester], the inhibition at 10 µM came to 50.7%. Consider `CC(C)c1cc(C(C)C)c(CC(=O)NS(=O)(=O)Oc2c(C(C)C)cc(NC(=O)CN)cc2C(C)C)c(C(C)C)c1` [Example 200, [(2,4,6-Triisopropyl-phenyl)-acetyl]-sulfamic acid 4-(2-amino-acetylamino)-2,6-diisopropyl-phenyl ester], for which the inhibition at 10 µM was 72.7%. Turning to `CSCC[C@H](N)C(=O)Nc1cc(C(C)C)c(OS(=O)(=O)NC(=O)Cc2c(C(C)C)cc(C(C)C)cc2C(C)C)c(C(C)C)c1` [Example 201, [2-(2,4,6-Triisopropyl-phenyl)-acetyl]-sulfamic acid 4-((S)-2-amino-4-methylsulfanyl-butyrylamino)-2,6-diisopropyl-phenyl ester], the inhibition at 10 µM worked out at 87.1%. As for `CC(C)c1cc(C(C)(C)O)cc(C(C)C)c1CC(=O)NS(=O)(=O)Oc1c(C(C)C)cccc1C(C)C` [Example 202, {[4-(1-Hydroxy-1-methyl-ethyl)-2,6-diisopropyl-phenyl]-acetyl}-sulfamic acid 2,6-diisopropyl-phenyl ester], the inhibition at 10 µM was 25.4%.

For the molecule `CC(C)c1cc(C(C)C)c(CC(=O)NS(=O)(=O)Oc2c(C(C)C)cc(Br)cc2C(C)C)c(C(C)C)c1` [Example 203, [(2,4,6-Triisopropyl-phenyl)-acetyl]-sulfamic acid 4-bromo-2,6-diisopropyl-phenyl ester], the inhibition at 10 µM was 52.2%. On to `CC(C)c1cc(C(C)C)c(CC(=O)NS(=O)(=O)Oc2c(C(C)C)cc(NC(=O)C(N)Cc3c[nH]c4ccccc34)cc2C(C)C)c(C(C)C)c1` (stereo not shown) [Example 204, [(2,4,6-Triisopropyl-phenyl)-acetyl]-sulfamic acid 4-[2-amino-3-(1H-indol-3-yl)-propionylamino]-2,6-diisopropyl-phenyl ester], for which the inhibition at 10 µM turned out to be 70%. For the molecule `CC(C)c1cc(C(C)C)c(CC(=O)NS(=O)(=O)Oc2c(C(C)C)cc(OCCCN(C)C)cc2C(C)C)c(C(C)C)c1` [Example 205, [(2,4,6-Triisopropyl-phenyl)-acetyl]-sulfamic acid 4-(3-dimethylamino-propoxy)-2,6-diisopropyl-phenyl ester], the inhibition at 10 µM came to 11.7%. As to `CC(C)c1cc(C(C)C)c(CC(=O)NS(=O)(=O)Oc2c(C(C)C)cc(NC(=O)[C@@H](C)N)cc2C(C)C)c(C(C)C)c1` [Example 206, [2-(2,4,6-Triisopropyl-phenyl)-acetyl]-sulfamic acid 4-((R)-2-amino-propionylamino)-2,6-diisopropyl-phenyl ester; compound with trifluoro-acetic acid], the inhibition at 10 µM was 47.9%. With `CC(C)c1cc(C(C)C)c(CC(=O)NS(=O)(=O)Oc2c(C(C)C)cc(NC(=O)C(C)(C)N)cc2C(C)C)c(C(C)C)c1` [Example 207, [(2,4,6-Triisopropyl-phenyl)-acetyl]-sulfamic acid 4-(2-amino-2-methyl-propionylamino)-2,6-diisopropyl-phenyl ester], the inhibition at 10 µM was 60.3%. Still for that read-out and setting: as for `CC(C)c1cc(C(C)C)c(CC(=O)NS(=O)(=O)Oc2c(C(C)C)cc(OCCCN)cc2C(C)C)c(C(C)C)c1` [Example 208, [2-(2,4,6-Triisopropyl-phenyl)-acetyl]-sulfamic acid 4-(3-amino-propoxy)-2,6-diisopropyl-phenyl ester], the figure is 22.4%. Still for that read-out and setting: as for `CC(C)c1cc(C(C)C)c(CC(=O)NS(=O)(=O)Oc2c(C(C)C)cc(SC#N)cc2C(C)C)c(C(C)C)c1` [Example 209, [(2,4,6-Triisopropyl-phenyl)-acetyl]-sulfamic acid 2,6-diisopropyl-4-thiocyanato-phenyl ester], the figure is 56.8%.

For the molecule `Cc1cc(C(C)C)c(OS(=O)(=O)NC(=O)Cc2c(C(C)C)cc(C(C)C)cc2C(C)C)c(C(C)C)c1` [Example 210, [(2,4,6-Triisopropyl-phenyl)-acetyl]-sulfamic acid 2,6-diisopropyl-4-methyl-phenyl ester], the inhibition at 10 µM worked out at 52.5%. Still for that read-out and setting: the same measure for `CC(C)c1cccc(C(C)C)c1OS(=O)(=O)NC(=O)C1(c2ccc(N(C)C)cc2)CCCC1` [Example 211, [1-(4-Dimethylamino-phenyl)-cyclopentanecarbonyl]-sulfamic acid 2,6-diisopropyl-phenyl ester]: 24.6%; for `CC(C)c1cc(C(C)C)c(CC(=O)NS(=O)(=O)Oc2c(C(C)C)cc(C#N)cc2C(C)C)c(C(C)C)c1` [Example 212, [(2,4,6-Triisopropyl-phenyl)-acetyl]-sulfamic acid 4-cyano-2,6-diisopropyl-phenyl ester]: 60.2%. Same read-out and setting: as for `CC(C)c1cccc(C(C)C)c1OS(=O)(=O)NC(=O)C1(c2ccc([N+](=O)[O-])cc2)CCCC1` [Example 213, [1-(4-Nitro-phenyl)-cyclopentanecarbonyl]-sulfamic acid 2,6-diisopropyl-phenyl ester], the figure is 19.7%; as for `CSCCC(NC(=O)OC(C)(C)C)C(=O)Nc1cc(C(C)C)c(OS(=O)(=O)NC(=O)Cc2c(C(C)C)cc(C(C)C)cc2C(C)C)c(C(C)C)c1` (stereo not shown) [Example 214, [1-(3,5-Diisopropyl-4-{[(2,4,6-triisopropyl-phenyl)-acetyl]sulfamoyloxy}-phenylcarbamoyl)-3-methylsulfanyl-propyl]-carbamic acid tert-butyl ester], 71.7%.
